In PubChem BioAssay AID1259407 (Chemical Carcinogenesis Research Information System (CCRIS), 2018):
Calls of active or inactive are those of the source. The rule behind the calls is not given here.

Test system: CCRIS mutagenicity, Ames/micronucleus/aberration tests
Assay: CCRIS mutagenicity studies
Conditions: Test System: AMES SALMONELLA TYPHIMURIUM

Measured: mutagenic call

CCNc1nc(Cl)nc(NC(C)C)n1
inactive: Strain/Indicator: TA97, Metabolic Activation: HAMSTER, LIVER, S-9, AROCLOR 1254 (10%), Method: PREINCUBATION inactive; negative | Strain/Indicator: TA97, Metabolic Activation: HAMSTER, LIVER, S-9, AROCLOR 1254 (30%), Method: PREINCUBATION inactive; negative | Strain/Indicator: TA97, Metabolic Activation: NONE, Method: PREINCUBATION inactive; negative | Strain/Indicator: TA97, Metabolic Activation: NONE, Method: STANDARD PLATE inactive; negative | Strain/Indicator: TA97, Metabolic Activation: RAT, LIVER, S-9, AROCLOR 1254 (10%), Method: PREINCUBATION inactive; negative | Strain/Indicator: TA97, Metabolic Activation: RAT, LIVER, S-9, AROCLOR 1254 (30%), Method: PREINCUBATION inactive; negative | Strain/Indicator: TA97, Metabolic Activation: RAT, LIVER, S-9, AROCLOR 1254, Method: STANDARD PLATE inactive; negative | Strain/Indicator: TA97A, Metabolic Activation: NONE, Method: STANDARD PLATE inactive; negative | Strain/Indicator: TA97A, Metabolic Activation: RAT, LIVER, S-9, AROCLOR 1254, Method: STANDARD PLATE inactive; negative | Strain/Indicator: TA98, Metabolic Activation: HAMSTER, LIVER, S-9, AROCLOR 1254 (10%), Method: PREINCUBATION inactive; negative | Strain/Indicator: TA98, Metabolic Activation: HAMSTER, LIVER, S-9, AROCLOR 1254 (30%), Method: PREINCUBATION inactive; negative | Strain/Indicator: TA98, Metabolic Activation: NONE inactive; negative | Strain/Indicator: TA98, Metabolic Activation: NONE, Method: PREINCUBATION inactive; negative | Strain/Indicator: TA98, Metabolic Activation: PIG, LIVER, S-9, SODIUM PHENOBARBITAL AND BETA-NAPHTHOFLAVONE, Method: STANDARD PLATE inactive; negative | Strain/Indicator: TA98, Metabolic Activation: RAT, LIVER, S-9, AROCLOR 1254 inactive; negative | Strain/Indicator: TA98, Metabolic Activation: RAT, LIVER, S-9, AROCLOR 1254 (10%), Method: PREINCUBATION inactive; negative | Strain/Indicator: TA98, Metabolic Activation: RAT, LIVER, S-9, AROCLOR 1254 (30%), Method: PREINCUBATION inactive; negative | Strain/Indicator: TA98, Metabolic Activation: RAT, LIVER, S-9, AROCLOR 1254, Method: STANDARD PLATE inactive; negative | Strain/Indicator: TA98, Metabolic Activation: S-9, Method: STANDARD PLATE inactive; negative | Strain/Indicator: TA100, Metabolic Activation: HAMSTER, LIVER, S-9, AROCLOR 1254 (10%), Method: PREINCUBATION inactive; negative | Strain/Indicator: TA100, Metabolic Activation: HAMSTER, LIVER, S-9, AROCLOR 1254 (30%), Method: PREINCUBATION inactive; negative | Strain/Indicator: TA100, Metabolic Activation: NONE inactive; negative | Strain/Indicator: TA100, Metabolic Activation: NONE, Method: PREINCUBATION inactive; negative | Strain/Indicator: TA100, Metabolic Activation: PIG, LIVER, S-9, SODIUM PHENOBARBITAL AND BETA-NAPHTHOFLAVONE, Method: STANDARD PLATE inactive; negative | Strain/Indicator: TA100, Metabolic Activation: RAT, LIVER, S-9, AROCLOR 1254 inactive; negative | Strain/Indicator: TA100, Metabolic Activation: RAT, LIVER, S-9, AROCLOR 1254 (10%), Method: PREINCUBATION inactive; negative | Strain/Indicator: TA100, Metabolic Activation: RAT, LIVER, S-9, AROCLOR 1254 (30%), Method: PREINCUBATION inactive; negative | Strain/Indicator: TA100, Metabolic Activation: RAT, LIVER, S-9, AROCLOR 1254, Method: STANDARD PLATE inactive; negative | Strain/Indicator: TA100, Metabolic Activation: S-9, Method: STANDARD PLATE inactive; negative | Strain/Indicator: TA102, Metabolic Activation: NONE inactive; negative | Strain/Indicator: TA102, Metabolic Activation: NONE, Method: STANDARD PLATE inactive; negative | Strain/Indicator: TA102, Metabolic Activation: RAT, LIVER, S-9, AROCLOR 1254 inactive; negative | Strain/Indicator: TA102, Metabolic Activation: RAT, LIVER, S-9, AROCLOR 1254, Method: STANDARD PLATE inactive; negative | Strain/Indicator: TA1535, Metabolic Activation: HAMSTER, LIVER, S-9, AROCLOR 1254 (10%), Method: PREINCUBATION inactive; negative | Strain/Indicator: TA1535, Metabolic Activation: HAMSTER, LIVER, S-9, AROCLOR 1254 (30%), Method: PREINCUBATION inactive; negative | Strain/Indicator: TA1535, Metabolic Activation: NONE inactive; negative | Strain/Indicator: TA1535, Metabolic Activation: NONE, Method: PREINCUBATION inactive; negative | Strain/Indicator: TA1535, Metabolic Activation: NONE, Method: STANDARD PLATE inactive; negative | Strain/Indicator: TA1535, Metabolic Activation: RAT, LIVER, S-9, AROCLOR 1254 inactive; negative | Strain/Indicator: TA1535, Metabolic Activation: RAT, LIVER, S-9, AROCLOR 1254 (10%), Method: PREINCUBATION inactive; negative | Strain/Indicator: TA1535, Metabolic Activation: RAT, LIVER, S-9, AROCLOR 1254 (30%), Method: PREINCUBATION inactive; negative | Strain/Indicator: TA1535, Metabolic Activation: RAT, LIVER, S-9, AROCLOR 1254, Method: STANDARD PLATE inactive; negative | Strain/Indicator: TA1537, Metabolic Activation: HAMSTER, LIVER, S-9, AROCLOR 1254 (10%), Method: PREINCUBATION inactive; negative | Strain/Indicator: TA1537, Metabolic Activation: HAMSTER, LIVER, S-9, AROCLOR 1254 (30%), Method: PREINCUBATION inactive; negative | Strain/Indicator: TA1537, Metabolic Activation: NONE inactive; negative | Strain/Indicator: TA1537, Metabolic Activation: NONE, Method: PREINCUBATION inactive; negative | Strain/Indicator: TA1537, Metabolic Activation: NONE, Method: STANDARD PLATE inactive; negative | Strain/Indicator: TA1537, Metabolic Activation: RAT, LIVER, S-9, AROCLOR 1254 inactive; negative | Strain/Indicator: TA1537, Metabolic Activation: RAT, LIVER, S-9, AROCLOR 1254 (10%), Method: PREINCUBATION inactive; negative | Strain/Indicator: TA1537, Metabolic Activation: RAT, LIVER, S-9, AROCLOR 1254 (30%), Method: PREINCUBATION inactive; negative | Strain/Indicator: TA1537, Metabolic Activation: RAT, LIVER, S-9, AROCLOR 1254, Method: STANDARD PLATE inactive; negative | Strain/Indicator: TA1538, Metabolic Activation: NONE, Method: STANDARD PLATE inactive; negative | Strain/Indicator: TA1538, Metabolic Activation: RAT, LIVER, S-9, AROCLOR 1254, Method: STANDARD PLATE inactive; negative
